Assay results taken from patent publication US20060074079A1, “Solid pharmaceutical formulations comprising Diacereine and Meloxicam” (Leopoldo Espinosa Abdala, priority 2004, published 2006).

Columns and labels:
[1] = clinical trials, administered to 2 years; cited from earlier work
[2] = test system: gout arthritis induced by intra-articular uric acid; assay: Pain Induced Functional Impairment model in the Rat (PIFIR), analgesic activity; assay type: in vivo, male Wistar rats; details: oral, single doses, rats with gout arthritis, FIG. 1
Protocol: The experiments were carried out using male Wistar rats having a body weight between 180 and 200 g. […] The number of test animals was taken to the minimal (6 animals for each experimental aspect). Animals were kept in a room with light/darkness cycles. Rats were fastened twelve hours prior the beginning of experiments, leaving only free access to water. All the experiments were run during the light phase, using the animals only once.
The evaluation of analgesic effects was carried out using the Pain Induced Functional Impairment model in the Rat (PIFIR) model. Animals were anesthetized in a glass desiccator saturated with ether vapors. Gout arthritis was induced, upon application of a intra-articular injection of 0.05 ml of uric acid suspended in mineral oil, in the right-side hind leg, exactly in the femoral-tibio-patellar joint. […] Variable measured was contact time of each hind leg of every rat in the cylinder.
Rats were administered with each of the compounds orally. […] This period of time (2.5 hours after administration of uric acid) was considered as time “0”, in order to administer in this point of time the antinociceptive or analgesic treatment and the temporary course of each treatment were determined during the following 4 continuous hours. […]
Data are expressed as Percentage of Functionality Index (FI %). […]

[3] = test system: cyclooxygenase (COX) from kidney or platelet; details: from kidney or platelet (LaVilla et al., 1989); cited from earlier work
[4] = test system: Interleukin-1 beta production in human monocytes; details: human monocytes in vitro (Berdah et al., 1993); cited from earlier work

## CC(=O)Oc1cccc2c1C(=O)c1c(OC(C)=O)cc(C(=O)O)cc1C2=O [Diacereine, 1,8-diacetoxy-3-carboxy-anthraquinone]
[1]
  safety on long-term administration: without having safety problems
[2]
  TC efficacy (analgesic effect, FI % temporal course): unable to generate analgesic effects
[3]
  activity of cyclooxygenase (COX): does not disrupt
[4]
  Interleukin-1 beta production: inhibit

## O=C(O)c1cc(O)c2c(c1)C(=O)c1cccc(O)c1C2=O [reine, Reine]
[4]
  Interleukin-1 beta production: inhibit
